# Like-named read-outs stand apart in the source and are kept apart here.
# Experiments:
# GLP1R = GLP1R (Homo sapiens, UniProt P43220); test: In vitro cellular cAMP expression activity assay (CRE-luciferase reporter); assay type: cell-based; conditions: HEK293/CRE-Luc/GLP1R cells, 6 h incubation, luciferase luminescence; read-out: HEK293/CRE-Luc/GLP-1R EC50
# Experimental: HEK293/CRE-Luc/GLP1R cells (manufacturer: GenScript Biotech Corporation) in a good growth state were taken, washed with PBS, and digested with pancreatin. The digestion was terminated with a complete medium. The cells were collected into a centrifuge tube, adjusted to a cell density of 4×10^5 cells/mL using a DMEM+2% FBS medium, seeded in a 96-well plate (100 μL/well), and incubated at 37° C. for 1 h. After 1 h, the compounds were added using a nanoliter pipettor such that the final concentrations of the compounds were 10 nM-0.0006 nM. The compounds were added in duplicate, and a control was set. After the cells were incubated in a cell incubator for another 6 h, a detection reagent Luciferase (manufacturer: Vazyme Biotech, 50 μL/well) was added. The plate was left to stand at room temperature for 3 min to fully lyse the cells, and the luminescence was detected on a PerkinElmer Envision microplate reader. A dose-response curve was fitted by four-parameter analysis, and the EC50 was calculated.
# [1] = In vitro stability assay in liver microsome (HLM); assay type: in vitro ADME, human; conditions: liver microsome 0.5 mg/mL, NADPH+MgCl2, PBS pH 7.4, 1 h
# Experimental: (§1) Liver microsome incubation samples were prepared by mixing a PBS buffer (pH 7.4), a liver microsome solution (0.5 mg/mL), a test compound, and an NADPH+MgCl2 solution, and incubated at […] and 300 rpm for 1 h. Zero-hour samples were prepared by mixing a PBS buffer (pH 7.4), a liver microsome solution (0.5 mg/mL), and a test compound. An acetonitrile solution containing an internal standard was added to the samples, and supernatants were prepared by protein precipitation, diluted, and then assayed by LC/MS/MS.
# [2] = In vitro stability assay in liver microsome (MLM); assay type: in vitro ADME, mouse; conditions: liver microsome 0.5 mg/mL, NADPH+MgCl2, PBS pH 7.4, 1 h
# Experimental: as §1
# [3] = In vivo pharmacokinetic evaluation in mice; conditions: mouse, plasma, ICR mice; for bioavailability: ig 3 mg/kg vs iv 0.5 mg/kg, read-out: Absolute bioavailability F; for MRT last: read-out: MRT(0-24); for half-life: read-out: t½ (converted); for AUC(0-t): read-out: AUC(0-24)
# Experimental: ICR mice of 18-22 g were randomized into 4 groups of 9 mice after 3-5 days of acclimatization. […]
# The test animals (ICR mice) were fasted from 12 h pre-dose to 4 h post-dose, and given free access to water throughout the study.
# Orbital blood samples of about 0.1 mL were collected at 15 min, 30 min, 1 h, 2 h, 3 h, 4 h, 6 h, 8 h, 10 h, and 24 h post-dose for the intragastric administration, and at 5 min, 10 min, 30 min, 1 h, 2 h, 4 h, 6 h, 8 h, 10 h, and 24 h post-dose for the intravenous administration. The blood sampling was performed at 3-4 time points for each mouse, 3 mice per time point. The collected whole blood was transferred into EDTA-K2-containing centrifuge tubes and stored at 4° C., and, within 1 h, centrifuged at 4° C. at 4000 rpm for 10 min to separate the plasma. All the plasma samples were immediately stored after collection at −20° C. for testing.
# 30 μL of the plasma sample to be tested and a standard curve sample were pipetted and added with 300 μL of an acetonitrile solution containing an internal standard (20 ng/mL of diazepam). The mixture was shaken to mix well for 5 min, and centrifuged at 13,000 rpm for 10 min. 80 μL of the supernatant was taken and diluted with 80 μL of ultrapure water. After a thorough mixing, 2 μL of the resulting sample was taken for liquid chromatography-mass spectrometry, and the chromatogram was recorded.
# Chain of GLP1R (P43220 24-463): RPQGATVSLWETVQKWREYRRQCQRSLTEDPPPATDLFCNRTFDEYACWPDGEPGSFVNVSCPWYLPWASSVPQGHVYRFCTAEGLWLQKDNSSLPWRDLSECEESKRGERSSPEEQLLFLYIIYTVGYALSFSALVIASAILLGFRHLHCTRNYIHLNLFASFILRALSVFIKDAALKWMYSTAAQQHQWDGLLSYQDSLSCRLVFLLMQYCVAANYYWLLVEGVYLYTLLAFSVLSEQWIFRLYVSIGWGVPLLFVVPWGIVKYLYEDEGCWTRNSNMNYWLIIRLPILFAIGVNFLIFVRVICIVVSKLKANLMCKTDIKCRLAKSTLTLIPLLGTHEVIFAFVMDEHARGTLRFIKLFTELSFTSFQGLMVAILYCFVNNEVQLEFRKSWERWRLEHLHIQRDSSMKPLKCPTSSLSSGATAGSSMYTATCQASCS
SMILES,EC50 (GLP1R),HLM Remaining (T = 60 min) [1],MLM Remaining (T = 60 min) [2],also measured
"C[C@H]1c2c(nn(-c3ccc(F)c(C4CC4)c3)c2-n2ccn(-c3ccc4c(c3)C3(CC3)C(=O)N4C)c2=O)CCN1C(=O)c1cc2cc(C3CCOC(C)(C)C3)ccc2n1[C@@]1(c2nc(=O)o[nH]2)C[C@@H]1C (single isomer, unassigned) [Compound 6]",< 0.5 nM,,,
C[C@H]1c2c(nn(-c3ccc(F)c(C4CC4)c3)c2-n2ccn(-c3ccc4c(c3)N(C)C(=O)C43CC3)c2=O)CCN1C(=O)c1cc2cc([C@H]3CCOC(C)(C)C3)ccc2n1[C@@]1(c2noc(=O)[nH]2)C[C@@H]1C [Compound 18],< 0.5 nM,89.14%,91.41%,"bioavailability ([3]; po): 33.5%; MRT last ([3]; po, ig, dose 3 mg/kg): 8.36 h; half-life ([3]; po, ig, dose 3 mg/kg): 4.29 h; MRT last ([3]; iv, dose 0.5 mg/kg): 5.48 h; half-life ([3]; iv, dose 0.5 mg/kg): 4.55 h; AUC(0-inf) ([3]; po, ig, dose 3 mg/kg): 6030 ng·h/mL; AUC(0-t) ([3]; po, ig, dose 3 mg/kg): 5840 ng·h/mL; AUC(0-inf) ([3]; iv, dose 0.5 mg/kg): 3000 ng·h/mL; AUC(0-t) ([3]; iv, dose 0.5 mg/kg): 2930 ng·h/mL"
C[C@H]1c2c(nn(-c3ccc(F)c(C4CC4)c3)c2-n2ccn(-c3ccc4c(c3)CC3(CC3)C4=O)c2=O)CCN1C(=O)c1cc2cc([C@H]3CCOC(C)(C)C3)ccc2n1[C@@]1(c2noc(=O)[nH]2)C[C@@H]1C [Compound 26],< 0.5 nM,,,
Cc1cc(-n2nc3c(c2-n2ccn(-c4ccc5nc6n(c5c4)CCN(C)C6)c2=O)[C@H](C)N(C(=O)c2cc4cc([C@H]5CCOC(C)(C)C5)ccc4n2[C@@]2(c4noc(=O)[nH]4)C[C@@H]2C)CC3)cc(C)c1F [Compound 7],< 0.5 nM,,,
Cc1cc(-n2nc3c(c2-n2ccn(-c4cc(F)c5c(c4)N(C)C(=O)C54CC4)c2=O)[C@H](C)N(C(=O)c2cc4cc([C@H]5CCOC(C)(C)C5)ccc4n2[C@@]2(c4noc(=O)[nH]4)C[C@@H]2C)CC3)cc(C)c1F [Compound 16],< 0.5 nM,,,
Cc1cc(-n2nc3c(c2-n2ccn(-c4ccc5c(c4)C4(CC4)C(=O)N5C)c2=O)[C@H](C)N(C(=O)c2cc4cc([C@H]5CCOC(C)(C)C5)ccc4n2C2(c4noc(=O)[nH]4)CC2)CC3)cc(C)c1F [Compound 4],< 0.5 nM,91.85%,95.46%,
"C[C@H]1c2c(nn(-c3ccc(F)c(C4CC4)c3)c2-n2ccn(-c3ccc4c(c3)N(C)C(=O)C43CC3)c2=O)CCN1C(=O)c1cc2cc(C3CCOC(C)(C)C3)ccc2n1C1(c2noc(=O)[nH]2)CC1 (single isomer, unassigned) [Compound 20]",< 0.5 nM,95.39%,77.59%,
C[C@H]1c2c(nn(-c3ccc(F)c(C4CC4)c3)c2-n2ccn(-c3ccc4c(c3)C3(CC3)C(=O)N4C)c2=O)CCN1C(=O)c1cc2cc([C@H]3CCOC(C)(C)C3)ccn2c1[C@@]1(c2noc(=O)[nH]2)C[C@@H]1C [Compound 24],< 0.5 nM,,,
"Cc1cc(-n2nc3c(c2-n2ccn(-c4ccc5c(c4)C4(CCC4)C(=O)N5C)c2=O)[C@H](C)N(C(=O)c2cc4cc(C5CCOC(C)(C)C5)ccc4n2[C@@]2(c4nc(=O)o[nH]4)C[C@@H]2C)CC3)cc(C)c1F (single isomer, unassigned) [Compound 21]",< 0.5 nM,,,
"Cc1cc(-n2nc3c(c2-n2ccn(-c4ccc5c(c4)C4(CC4)C(=O)N5C)c2=O)C(C)N(C(=O)c2cc4cc(C5CCOC(C)(C)C5)ccn4c2C2(c4noc(=O)[nH]4)CC2C)CC3)cc(C)c1F (single isomer, unassigned) [Compound 22-A]",< 0.5 nM,,,
Cc1cc(-n2nc3c(c2-n2ccn(-c4ccc5c(c4)N(C)C(=O)C54CC4)c2=O)[C@H](C)N(C(=O)c2cc4cc([C@H]5CCOC(C)(C)C5)ccc4n2C2(c4noc(=O)[nH]4)CC2)CC3)cc(C)c1F [Compound 19],< 0.5 nM,92.40%,77.17%,
COCC#Cc1ccc(-n2ccn(-c3c4c(nn3-c3cc(C)c(F)c(C)c3)CCN(C(=O)c3cc5cc([C@H]6CCOC(C)(C)C6)ccc5n3[C@@]3(c5noc(=O)[nH]5)C[C@@H]3C)[C@H]4C)c2=O)c(F)c1 [Compound 10-A],< 0.5 nM,,,

# Continued, in another order:
EC50 (GLP1R),HLM Remaining (T = 60 min) [1],MLM Remaining (T = 60 min) [2],SMILES,also measured
< 0.5 nM,84.57%,84.44%,[2H]C([2H])([2H])N1C(=O)C2(CC2)c2ccc(-n3ccn(-c4c5c(nn4-c4cc(C)c(F)c(C)c4)CCN(C(=O)c4cc6cc([C@H]7CCOC(C)(C)C7)ccc6n4[C@@]4(c6noc(=O)[nH]6)C[C@@H]4C)[C@H]5C)c3=O)cc21 [Compound 13],
< 0.5 nM,,,Cc1cc(-n2nc3c(c2-n2ccn(-c4ccc5c(c4)N(C4CC4)C(=O)C54CC4)c2=O)[C@H](C)N(C(=O)c2cc4cc([C@H]5CCOC(C)(C)C5)ccc4n2[C@@]2(c4noc(=O)[nH]4)C[C@@H]2C)CC3)cc(C)c1F [Compound 17],
< 0.5 nM,80.83%,90.13%,Cc1cc(-n2nc3c(c2-n2ccn(-c4ccc5c(c4)C4(CC4)C(=O)N5C4CC4)c2=O)[C@H](C)N(C(=O)c2cc4cc([C@H]5CCOC(C)(C)C5)ccc4n2[C@@]2(c4noc(=O)[nH]4)C[C@@H]2C)CC3)cc(C)c1F [Compound 3],"bioavailability ([3]; po): 33.7%; MRT last ([3]; po, ig, dose 3 mg/kg): 8.42 h; half-life ([3]; po, ig, dose 3 mg/kg): 4.15 h; MRT last ([3]; iv, dose 0.5 mg/kg): 6.13 h; half-life ([3]; iv, dose 0.5 mg/kg): 5.73 h; AUC(0-inf) ([3]; po, ig, dose 3 mg/kg): 4960 ng·h/mL; AUC(0-t) ([3]; po, ig, dose 3 mg/kg): 4800 ng·h/mL; AUC(0-inf) ([3]; iv, dose 0.5 mg/kg): 2450 ng·h/mL; AUC(0-t) ([3]; iv, dose 0.5 mg/kg): 2360 ng·h/mL"
< 0.5 nM,88.76%,88.89%,[2H]C([2H])([2H])N1C(=O)C2(CC2)c2cc(-n3ccn(-c4c5c(nn4-c4cc(C)c(F)c(C)c4)CCN(C(=O)c4cc6cc([C@H]7CCOC(C)(C)C7)ccc6n4[C@@]4(c6noc(=O)[nH]6)C[C@@H]4C)[C@H]5C)c3=O)ccc21 [Compound 2],"bioavailability ([3]; po): 43.9%; MRT last ([3]; po, ig, dose 3 mg/kg): 7.73 h; half-life ([3]; po, ig, dose 3 mg/kg): 3.53 h; MRT last ([3]; iv, dose 0.5 mg/kg): 5.13 h; half-life ([3]; iv, dose 0.5 mg/kg): 4.1 h; AUC(0-inf) ([3]; po, ig, dose 3 mg/kg): 4880 ng·h/mL; AUC(0-t) ([3]; po, ig, dose 3 mg/kg): 4790 ng·h/mL; AUC(0-inf) ([3]; iv, dose 0.5 mg/kg): 1850 ng·h/mL; AUC(0-t) ([3]; iv, dose 0.5 mg/kg): 1820 ng·h/mL"
< 0.5 nM,,,Cc1cc(-n2nc3c(c2-n2ccn(-c4ccc5c(c4)C(=O)C4(CC4)C5)c2=O)[C@H](C)N(C(=O)c2cc4cc([C@H]5CCOC(C)(C)C5)ccc4n2[C@@]2(c4noc(=O)[nH]4)C[C@@H]2C)CC3)cc(C)c1F [Compound 9-A],
< 0.5 nM,,,Cc1cc(-n2nc3c(c2-n2ccn(-c4ccc5c(c4)CC4(COC4)C5)c2=O)[C@H](C)N(C(=O)c2cc4cc([C@H]5CCOC(C)(C)C5)ccc4n2[C@@]2(c4noc(=O)[nH]4)C[C@@H]2C)CC3)cc(C)c1F [Compound 12-A],
< 0.5 nM,,,Cc1cc(-n2nc3c(c2-n2ccn(-c4ccc5nc6n(c5c4)CCC6)c2=O)[C@H](C)N(C(=O)c2cc4cc([C@H]5CCOC(C)(C)C5)ccc4n2[C@@]2(c4noc(=O)[nH]4)C[C@@H]2C)CC3)cc(C)c1F [Compound 8],
< 0.5 nM,,,Cc1cc(-n2nc3c(c2-n2ccn(-c4ccc5c(c4)C4(CC4)C(=O)N5C)c2=O)[C@H](C)N(C(=O)c2cc4cc([C@H]5CCOC(C)(C)C5)ccc4n2[C@@]2(c4noc(=O)[nH]4)C[C@@H]2C)CC3)cc(C)c1F [Compound 1-A],
